Paper PMC8767159, “Multiparameter Optimization of Trypanocidal Cruzain Inhibitors With In Vivo Activity and Favorable Pharmacokinetics” (Frontiers in Pharmacology, 2022)
Like-named read-outs stand apart in the source and are kept apart here.

Assays:
[1] = Parallel artificial membrane permeability assay (PAMPA); assay type: in vitro ADME; parameters: PAMPA: unit: 1e-6 cm/s; settings: for PAMPA: unit not given
Experimental: The permeability of the compounds was assessed using the PAMPA method ([Yu et al., 2015]). The test compounds were dissolved in DMSO to a concentration of 5 mM. Next, the compounds were diluted in a stock plate in saline phosphate buffer (PBS), pH 6.5, containing 1% DMSO to a concentration of 1 µM. Then, 300 µl of each test compound was added to the donor plate. Afterward, 200 µl of PBS buffer, pH 7.4, was added to the acceptor plate. The donor plate was attached to the acceptor plate. The assembled acceptor-donor plate was then incubated at 37°C for 5 h under gentle agitation. To analyze the concentration of the compounds by mass spectrometry, two analysis plates (one for the donor and another for the acceptor plate) containing 300 μl of MEOH:ACN 50:50 were prepared. To the donor analysis plate, 90 µl of PBS, pH 6.5, and 10 µl of the content of the donor plate were added. For the acceptor analysis plate, 100 µl of the content of the acceptor plate was added. To monitor any potential decomposition/intrinsic instability of the test compounds in solution, samples from the stock plate were subjected to LC-MS/MS. The compounds that presented Pe ≥ 1.5 × 10^−6 cm/s were classified as permeable, while compounds that presented Pe < 1.5 × 10^−6 cm/s were considered poorly permeable or nonpermeable.

[2] = molecular target: T1, cruzain (Trypanosoma cruzi, UniProt P25779); experiment: Cruzain enzyme inhibition assay (cleavage of fluorogenic substrate Z-FR-AMC); assay type: biochemical; settings: for inhibition at 100 µM: compound 100 µM, mean of three measures; for Mechanism of cruzain inhibition (Lineweaver-Burk plots): eight substrate and four inhibitor concentrations
T1 construct: made in house; host or cells: Escherichia coli (strain M15)
Experimental: Pro-cruzain truncated at the C-terminus was expressed and purified using a previously described protocol ([Ferreira et al., 2019]). Escherichia coli (strain M15) cultures were grown overnight at 37°C and 200 rpm in Luria Bertani (LB) medium supplemented with ampicillin (100 μg/ml) and kanamycin (50 μg/ml). Next, the cultures were diluted 10-fold in fresh LB medium supplemented with 0.5 M NaCl, 0.2% glucose, 1 mM betaine, 0.5 M sorbitol, 100 μg/ml ampicillin, and 50 μg/ml kanamycin and incubated at 37°C and 200 rpm. At an optical density (OD600) of 0.9, the cultures were incubated at 47°C for 20 min to promote the expression of chaperones. Then, the expression of cruzain was induced by adding isopropyl β-D-thiogalactopyranoside (IPTG) to a final concentration of 0.2 mM, which was followed by overnight incubation of the cultures at 20°C and 200 rpm. Next, the cultures were centrifuged (5,000 rpm, 30 min, 4°C), and the cells were suspended in 50 ml of lysis buffer (300 mM NaCl, 50 mM Tris-HCl, and 1.6 mg/ml lysozyme, pH 8.0) per liter of culture and lysed by sonication (12 cycles of 30 s). This cell lysate was centrifuged (9,000 rpm, 30 min, 4°C), and the supernatant was collected. Cruzain was precipitated by incubation with 35% ammonium sulfate (2 h), and this suspension was centrifuged at 9,000 rpm for 30 min at 4°C. The precipitated cruzain was resuspended in lysis buffer, and the sample was dialyzed to eliminate ammonium sulfate. The soluble fraction of the dialysate was loaded on a Ni−NTA column (Qiagen, Hilden, Germany), and the contaminants were washed using washing buffer (300 mM NaCl, 50 mM Tris-HCl, and 10 mM imidazole, pH 8.0). Cruzain was eluted by applying an increasing imidazole gradient: 25, 50, 75, 100, and 250 mM. The fractions containing cruzain were pooled together and dialyzed against 1.5 L of 0.1 M acetate buffer, pH 5.5, and then concentrated to 0.5 mg/ml. Pro-cruzain was activated by incubation with activation buffer (100 mM sodium acetate, pH 5.5, 10 mM EDTA, 5 mM DTT, and 1 M NaCl) at 37°C. […] After activation, the enzyme was diluted 20-fold in binding buffer (20 mM sodium phosphate and 150 mM NaCl, pH 7.2) and added to thiopropyl Sepharose 6B resin (GE Healthcare Life Sciences, Pittsburgh, PA). After overnight incubation at 4°C, the resin was loaded on a column, and cruzain was eluted with binding buffer supplemented with 20 mM DTT. Fractions containing cruzain were pooled together and stored in 0.1 M sodium acetate, pH 5.5, at −80°C.
Cruzain activity was followed by monitoring the cleavage of the fluorogenic substrate Z-Phe-Arg-aminomethyl coumarin (Z-FR-AMC), as previously described ([Ferreira et al., 2019]), using 96-well flat-bottom black plates and wavelengths of 355 nm for excitation and 460 nm for emission. All cruzain assays were performed in 0.1 M sodium acetate buffer with 5 mM dithiothreitol (DTT) and 0.01% Triton X-100, pH 5.5. […] The cleavage of the substrate was monitored for 5 min, and the activity was calculated based on the initial reaction rates compared with the rate of a DMSO control at 30°C. The IC50 values were independently calculated by considering the rate measurements for at least six inhibitor concentrations, each evaluated in triplicate. To determine the mechanism of cruzain inhibition, eight concentrations of the substrate Z-FR-AMC and four concentrations of the inhibitor were employed, each in triplicate. Kinetic parameters were determined using the SigmaPlot (Systat Software Inc., Erkrath, Germany) enzyme kinetics module. Compounds were tested in two or three independent experiments. All enzyme assays were performed using varying Triton X-100 concentrations (0, 0.01, and 0.1%) ([Ferreira et al., 2009]). Compound concentrations were 100 μM in the single-dose percentage inhibition assays.

[3] = Experimental distribution coefficient (eLogD) by LC retention time; assay type: physicochemical; settings: for chromatographic logD: C18 column (LC retention time); for eLogD: Table S5
Experimental: For the eLogD assays ([Waring, 2010]), each compound (5 μl) from a 5 mM stock solution was diluted in 245 μl of a solution containing buffers A (5% MeOH, 10 mM ammonium acetate, pH 7.4) and B (100% MeOH, pH 7.4) (50:50). Nine control compounds with known eLogD and column retention times (acyclovir, atenolol, antipyrine, fluconazole, metoprolol, carbamazepine, ketoconazole, tolnaftate, and amiodarone; eLogD values ranging from −1.86 to 6.1) were subjected to LC-MS/MS in triplicate before and after the analysis of the test compounds. Retention times were recorded for each control and test compound in a C18 column. The retention time of each control compound was plotted against the respective eLogD values described in the literature ([Lombardo et al., 2002]; [Lombardo et al., 2004]; [Alelyunas et al., 2010]). The resulting linear equation (y = mx + b) was used to calculate the eLogD values of the test compounds, in which x is the retention time in minutes and y is the eLogD value.

[4] = PAMPA, Table 3, donor pH 6.5, acceptor pH 7.4, 5 h
[5] = 1.5 nM cruzain, 5.0 µM Z-FR-AMC, mean ± SD of 2–3 assays, read-out: IC50 (µM) against cruzain

T1 sequence (P25779 123-337 limits assumed): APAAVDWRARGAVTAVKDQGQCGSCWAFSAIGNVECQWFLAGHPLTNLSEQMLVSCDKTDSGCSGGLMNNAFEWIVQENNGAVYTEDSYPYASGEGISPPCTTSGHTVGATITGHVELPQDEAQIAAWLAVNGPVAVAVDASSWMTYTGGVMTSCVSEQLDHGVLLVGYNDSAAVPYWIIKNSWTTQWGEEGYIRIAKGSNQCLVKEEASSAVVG

COc1ccc2cc(OCC(=O)NCCc3nc4ccccc4[nH]3)ccc2c1 [Compound 12]
Papp at 5 h, 1 µM [1, 4]: 0.34 ×10⁻⁶ cm/s | PAMPA ([1]; Table S5): 0.34 | IC50 [2, 5]: 2.3 ± 0.6 µM | inhibition at 100 µM [2]: 100% | chromatographic logD ([3]; pH 7.4, Table 3, pH 7.4): 3.89 | eLogD [3]: 3.89

O=C(COc1ccc(N2C(=O)CCC2=O)cc1)NCCc1nc2ccccc2[nH]1 [Compound 4]
Papp at 5 h, 1 µM ([1]; Table S5, unit inferred): 0.17 ×10⁻⁶ cm/s | inhibition at 100 µM [2]: 20% | chromatographic logD ([3]; pH 7.4, Table S5): 1.59

C=CCCn1c(CCNC(=O)COc2ccccc2Cl)nc2ccccc21 [Compound 38]
Papp at 5 h, 1 µM ([1]; PAMPA, Table 5): 7.7 ×10⁻⁶ cm/s | chromatographic logD ([3]; pH 7.4, Table 5): 4.1

O=C(COc1ccccc1)NCCc1nc2ccccc2n1-c1ccccc1 [Compound 30]
Papp at 5 h, 1 µM ([1]; Table S5, unit inferred): 17.8 ×10⁻⁶ cm/s | IC50 [2, 5]: 8.6 ± 2.6 µM | inhibition at 100 µM [2]: 79% | chromatographic logD ([3]; pH 7.4, Table S5): 4.04

O=C(COc1ccccc1)NCCc1nc2ccccc2n1CCCOc1ccccc1 [Compound 24]
Papp at 5 h, 1 µM [1, 4]: 2.29 ×10⁻⁶ cm/s | PAMPA ([1]; Table S5): 2.29 | IC50 [2, 5]: 2.2 ± 1.2 µM | % cruzain inhibition, 0% Triton ([2]; Table S1, 0% Triton X-100): 87.9 ± 0.7% | % cruzain inhibition, 0.01% Triton ([2]; Table S1, 0.01% Triton X-100): 82.6 ± 0.3% | % cruzain inhibition, 0.1% Triton ([2]; Table S1, 0.1% Triton X-100): 82.9 ± 3.5% | IC50 ([2]; Table S2, substrate 2.5 µM, read-out: IC50 (µM) cruzain at [S] 2.5 µM): 1.7 ± 1.3 µM | IC50 ([2]; Table S2, substrate 5 µM, read-out: IC50 (µM) cruzain at [S] 5 µM): 2.2 ± 1.3 µM | IC50 ([2]; Table S2, substrate 10 µM, read-out: IC50 (µM) cruzain at [S] 10 µM): 2.2 ± 1.1 µM | IC50 ([2]; Table S2, substrate 15 µM, read-out: IC50 (µM) cruzain at [S] 15 µM): 1.9 ± 1.8 µM | IC50 ([2]; Table S2, substrate 20 µM, read-out: IC50 (µM) cruzain at [S] 20 µM): 2.5 ± 1.2 µM | IC50 ([2]; Table S2, substrate 40 µM, read-out: IC50 (µM) cruzain at [S] 40 µM): 2.1 ± 0.9 µM | inhibition at 100 µM [2]: 81% | Mechanism of cruzain inhibition (Lineweaver-Burk plots) [2]: noncompetitive | chromatographic logD ([3]; pH 7.4, Table 3, pH 7.4): 4.45 | eLogD [3]: 4.45

O=C(CCc1ccccc1Br)NCCc1nc2ccccc2[nH]1 [Compound 36]
Papp at 5 h, 1 µM ([1]; PAMPA, Table 5): 4.7 ×10⁻⁶ cm/s | chromatographic logD ([3]; pH 7.4, Table 5): 3.8

O=C(COc1ccc(Br)cc1)NCCc1nc2ccccc2[nH]1 [Compound 33]
Papp at 5 h, 1 µM ([1]; PAMPA, Table 5): 0.7 ×10⁻⁶ cm/s | chromatographic logD ([3]; pH 7.4, Table 5): 2.8

N#Cc1ccccc1OCC(=O)NCCc1nc2ccccc2[nH]1 [Compound 31]
Papp at 5 h, 1 µM ([1]; PAMPA, Table 5): 2.2 ×10⁻⁶ cm/s | chromatographic logD ([3]; pH 7.4, Table 5): 2.6

Cc1ccccc1OCC(=O)NCCc1nc2ccccc2n1CCOc1ccccc1Br [Compound 22]
Papp at 5 h, 1 µM ([1]; Table S5, unit inferred): 0.04 ×10⁻⁶ cm/s | inhibition at 100 µM [2]: 36% | chromatographic logD ([3]; pH 7.4, Table S5): 4.81

O=C(COc1ccccc1)NCCc1nc2ccccc2[nH]1 [Compound 1]
Papp at 5 h, 1 µM [1, 4]: 4.21 ×10⁻⁶ cm/s | PAMPA ([1]; Table S5): 4.21 | IC50 [2, 5]: 10.9 ± 1 µM | inhibition at 100 µM [2]: 90% | Mechanism of cruzain inhibition (Lineweaver-Burk plots) [2]: competitive | chromatographic logD ([3]; pH 7.4, Table 3, pH 7.4): 2.9 | eLogD [3]: 2.90

Cc1ccccc1OCC(=O)NCCc1nc2ccccc2o1 [Compound 37]
Papp at 5 h, 1 µM ([1]; PAMPA, Table 5): 19.7 ×10⁻⁶ cm/s | chromatographic logD ([3]; pH 7.4, Table 5): 3.9

O=C(COc1ccccc1Br)NCCc1nc2ccccc2[nH]1 [Compound 18]
Papp at 5 h, 1 µM ([1]; PAMPA, Table 5): 5.6 ×10⁻⁶ cm/s | chromatographic logD ([3]; pH 7.4, Table 5): 3.9

O=C(COc1ccc2c(C(=O)O)cccc2c1)NCCc1nc2ccccc2[nH]1 [Compound 15]
IC50 [2, 5]: > 100 µM | inhibition at 100 µM [2]: 58% | chromatographic logD ([3]; pH 7.4, Table S5): 1.31

O=C(Cn1ccnc1[N+](=O)[O-])NCc1ccccc1 [BZ, benznidazole, reference compound]
Papp at 5 h, 1 µM [1, 4]: 3.17 ×10⁻⁶ cm/s | Papp at 5 h, 1 µM ([1]; PAMPA, Table 5): 3.2 ×10⁻⁶ cm/s | PAMPA ([1]; Table S5): 3.17 | chromatographic logD ([3]; pH 7.4, Table 3, pH 7.4): 0.84 | chromatographic logD ([3]; pH 7.4, Table 5): 0.8 | eLogD [3]: 0.84

O=C(COc1ccc2ccccc2c1Br)NCCc1nc2ccccc2[nH]1 [Compound 34]
Papp at 5 h, 1 µM ([1]; PAMPA, Table 5): 0.3 ×10⁻⁶ cm/s | chromatographic logD ([3]; pH 7.4, Table 5): 4.4

O=C(COc1ccc2ccccc2c1)NCCc1nc2ccccc2[nH]1 [Compound 35]
Papp at 5 h, 1 µM ([1]; PAMPA, Table 5): 0.7 ×10⁻⁶ cm/s | chromatographic logD ([3]; pH 7.4, Table 5): 3.9

Cc1ccccc1OCC(=O)NCCc1nc2ccccc2[nH]1 [Compound 17]
Papp at 5 h, 1 µM ([1]; PAMPA, Table 5): 5.9 ×10⁻⁶ cm/s | chromatographic logD ([3]; pH 7.4, Table 5): 3.6

O=C(COc1ccccc1[N+](=O)[O-])NCCc1nc2ccccc2[nH]1 [Compound 32]
Papp at 5 h, 1 µM ([1]; PAMPA, Table 5): 4.9 ×10⁻⁶ cm/s | chromatographic logD ([3]; pH 7.4, Table 5): 3.6
